Reference: US20210179666A1, “CYCLIC PEPTIDES AND METHODS OF USE THEREOF” (Regents of the University of Minnesota, priority 2019, published 2021)
Several values for one entry are separate records, joined by “and”; a condition that tells them apart may be missing. Equal values may be shown once. Read-outs that look alike come from different tables or passages of the source. Square brackets hold non-standard residues; d marks the D form. Peptide text beside a SMILES is read from it. Dap = NC[C@H](N)C(=O)O

What was measured:
[1] = target: T1, hMC4R (Homo sapiens, UniProt P32245); test: cAMP AlphaScreen bioassay, HEK293 cells stably expressing hMC4R; type: cell-based; design: expressed in transfected cells; conditions: for Observed Inverse Agonism?: hMC4R, cAMP; for hMC4R pA2: antagonist pA2, Schild analysis with agonist NDP-MSH, ± SEM, <5.0 = no antagonist potency up to 10,000 nM
[2] = target: T2, mMC1R (Mus musculus, UniProt Q01727); test: cAMP AlphaScreen bioassay, HEK293 cells stably expressing mMC1R
[3] = target: T2, mMC1R; test: 125I-NDP-MSH competitive binding assay, transfected HEK293 cells, mMC1R; conditions: binding IC50 versus control 1 (Asn) or 2 (Dap)
[4] = target: T3, mMC3R (Mus musculus, UniProt P33033); test: 125I-NDP-MSH competitive binding assay, transfected HEK293 cells, mMC3R; conditions: binding IC50 versus control 1 (Asn) or 2 (Dap)
[5] = target: T4, mMC4R (Mus musculus, UniProt P56450); test: 125I-NDP-MSH competitive binding assay, transfected HEK293 cells, mMC4R; conditions: binding IC50 versus control 1 (Asn) or 2 (Dap)
[6] = target: T1, hMC4R; test: 125I-NDP-MSH competitive binding assay, transfected HEK293 cells, hMC4R; conditions: binding IC50 versus control 1 (Asn) or 2 (Dap)
[7] = target: MC5R (Homo sapiens, UniProt P33032); conditions: chemically synthetized AgRP ligands, Yang et al. 1999, cited from earlier work
[8] = target: T3, mMC3R; conditions: Example 1; antagonist, Schild analysis with NDP-MSH; ± SEM; <5.0 = no antagonist potency up to 10,000 nM
[9] = target: T4, mMC4R; conditions: Example 1; for mMC4R pA2: antagonist, Schild analysis with NDP-MSH, ± SEM, <5.0 = no antagonist potency up to 10,000 nM
[10] = target: T5, mMC5R (Mus musculus, UniProt P41149); test: 125I-NDP-MSH competitive binding assay, transfected HEK293 cells, mMC5R; conditions: binding IC50 versus control 1 (Asn) or 2 (Dap)
[11] = target: T5, mMC5R; conditions: Example 1; antagonist, Schild analysis with NDP-MSH; ± SEM; reported herein for the first time

T4 sequence (P56450 whole entry): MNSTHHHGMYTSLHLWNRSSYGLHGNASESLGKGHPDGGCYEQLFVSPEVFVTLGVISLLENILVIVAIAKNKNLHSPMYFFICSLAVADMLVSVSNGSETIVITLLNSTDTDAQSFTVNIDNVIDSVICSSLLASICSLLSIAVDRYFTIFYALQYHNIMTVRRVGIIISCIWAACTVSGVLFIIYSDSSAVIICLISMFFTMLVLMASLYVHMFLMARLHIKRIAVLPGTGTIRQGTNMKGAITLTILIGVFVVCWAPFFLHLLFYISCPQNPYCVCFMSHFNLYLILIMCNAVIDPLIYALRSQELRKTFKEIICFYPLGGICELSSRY
T2 sequence (Q01727 whole entry): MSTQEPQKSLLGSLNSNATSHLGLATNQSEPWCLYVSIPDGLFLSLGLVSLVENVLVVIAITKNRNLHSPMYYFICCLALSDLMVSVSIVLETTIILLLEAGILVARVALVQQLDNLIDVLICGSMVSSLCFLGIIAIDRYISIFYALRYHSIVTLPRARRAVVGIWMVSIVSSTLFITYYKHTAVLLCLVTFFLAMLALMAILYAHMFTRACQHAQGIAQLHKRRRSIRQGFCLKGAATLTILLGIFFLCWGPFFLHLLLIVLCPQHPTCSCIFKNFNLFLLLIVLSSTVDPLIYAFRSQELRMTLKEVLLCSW
T1 sequence (P32245 whole entry): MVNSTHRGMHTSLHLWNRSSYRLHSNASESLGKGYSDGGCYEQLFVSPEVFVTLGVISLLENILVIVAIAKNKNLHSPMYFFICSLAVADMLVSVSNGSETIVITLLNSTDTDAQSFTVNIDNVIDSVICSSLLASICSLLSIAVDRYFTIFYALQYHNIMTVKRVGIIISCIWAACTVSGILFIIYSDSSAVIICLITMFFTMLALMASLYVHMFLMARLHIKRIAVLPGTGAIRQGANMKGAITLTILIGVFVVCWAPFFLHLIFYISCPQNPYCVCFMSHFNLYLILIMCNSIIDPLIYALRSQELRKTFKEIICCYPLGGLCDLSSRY
T3 sequence (P33033 whole entry): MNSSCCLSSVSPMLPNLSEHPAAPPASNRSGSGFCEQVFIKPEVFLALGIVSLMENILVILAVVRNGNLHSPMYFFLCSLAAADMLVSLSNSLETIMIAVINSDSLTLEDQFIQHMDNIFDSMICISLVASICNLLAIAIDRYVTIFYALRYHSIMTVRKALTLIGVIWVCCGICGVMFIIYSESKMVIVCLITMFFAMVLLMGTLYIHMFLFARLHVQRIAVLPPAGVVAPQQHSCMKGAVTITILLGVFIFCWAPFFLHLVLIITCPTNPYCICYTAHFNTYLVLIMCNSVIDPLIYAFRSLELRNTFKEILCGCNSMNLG
T5 sequence (P41149 whole entry): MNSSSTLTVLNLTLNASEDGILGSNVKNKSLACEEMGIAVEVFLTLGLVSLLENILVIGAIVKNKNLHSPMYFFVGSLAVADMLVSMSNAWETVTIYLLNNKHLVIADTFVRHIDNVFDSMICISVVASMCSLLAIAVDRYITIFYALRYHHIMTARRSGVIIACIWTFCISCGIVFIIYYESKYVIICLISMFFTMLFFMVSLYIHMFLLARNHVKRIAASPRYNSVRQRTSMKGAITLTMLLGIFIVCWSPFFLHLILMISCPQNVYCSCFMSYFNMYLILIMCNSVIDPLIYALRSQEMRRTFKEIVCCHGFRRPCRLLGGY
MC5R, sequence (P33032 whole entry, species assumed): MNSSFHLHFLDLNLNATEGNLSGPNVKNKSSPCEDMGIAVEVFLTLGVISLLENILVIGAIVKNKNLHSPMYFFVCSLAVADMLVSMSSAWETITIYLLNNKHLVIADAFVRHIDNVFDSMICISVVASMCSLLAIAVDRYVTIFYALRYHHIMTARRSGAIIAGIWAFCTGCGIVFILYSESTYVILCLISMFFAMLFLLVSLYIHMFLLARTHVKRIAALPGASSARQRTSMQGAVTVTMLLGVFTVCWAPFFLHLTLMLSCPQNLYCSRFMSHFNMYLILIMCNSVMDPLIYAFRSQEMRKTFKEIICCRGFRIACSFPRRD

Row | Compound | Observed Inverse Agonism? [1] | hMC4R agonist stimulation ([1]; up to 100 μM concentrations) | mMC1R stimulation of the receptor, % of the NDP-MSH control ([2]; full agonist, maximal stimulation) [%] | EC50 ([2]; read-out: mMC1R EC50, Example 1, agonist, ± SEM, >100,000 = no agonist activity up to 100 μM) [nM] | mMC1R Fold Diff [3] | mMC3R Fold Diff [4] | mMC4R Fold Diff [5] | hMC4R Fold Diff [6] | IC50 ([7]; read-out: IC50, displacement of radiolabeled NDP-MSH at the MC5R) [nM] | IC50 ([7]; read-out: IC50, displacement of radiolabeled AgRP at the MC5R) [nM] | mMC3R pA2 [8] | mMC4R pA2 [9] | hMC4R pA2 [1] | mMC5R Fold Diff [10] | mMC5R pA2 [11] | mMC4R percent maximal stimulatory response ([9]; @ 100 μM, relative to NDP-MSH signal) [% @] | hMC4R pA2 ([1]; listed as AMK 2-82)
1 | C[C@@H]1NC(=O)[C@H](CN)NC(=O)[C@H](Cc2ccccc2)NC(=O)[C@H](Cc2ccccc2)NC(=O)[C@H](CS)NC(=O)[C@@H]2CCCN2C(=O)[C@H]2CCCN2C(=O)[C@H](Cc2ccccc2)NC1=O [ZMK 3-20, c[Pro-Cys-Phe-Phe-Dap-Ala-Phe-DPro]] (cyclo(PCFF[Dap]AF[dP])) | No | unable to stimulate | 98 | 4000 | 6 | 15 | 5200 | 2100 |  |  |  |  |  |  |  |  | 
2 | AgRP: agouti-related protein, endogenous MC3R and MC4R antagonist and MC4R inverse agonist | Yes |  |  |  |  |  |  |  | 310 | 26 |  |  |  |  |  |  | 
3 | C[C@@H]1NC(=O)[C@H](CN)NC(=O)[C@H](Cc2ccccc2)NC(=O)[C@H](Cc2ccccc2)NC(=O)[C@H](Cc2c[nH]cn2)NC(=O)[C@@H]2CCCN2C(=O)[C@H]2CCCN2C(=O)[C@H](Cc2ccccc2)NC1=O [ZMK 2-99, c[Pro-His-Phe-Phe-Dap-Ala-Phe-DPro]] (cyclo(PHFF[Dap]AF[dP])) | No |  |  |  | 5 | 5 | 500 | 400 |  |  | 5.4 and 5.4 ± 0.1 | 6.0 and 6.0 ± 0.1 | 6.4 and 6.4 ± 0.09 | 7 |  |  | 
4 | C[C@@H]1NC(=O)[C@H](CN)NC(=O)[C@H](Cc2ccccc2)NC(=O)[C@H](Cc2ccc(O)cc2)NC(=O)[C@H](CCCNC(=N)N)NC(=O)[C@@H]2CCCN2C(=O)[C@H]2CCCN2C(=O)[C@H](Cc2ccccc2)NC1=O [ZMK 2-112, c[Pro-Arg-Tyr-Phe-Dap-Ala-Phe-DPro]] (cyclo(PRYF[Dap]AF[dP])) | Yes |  |  |  | 4 | 9 | 70 | 100 |  |  | 6.5 and 6.5 ± 0.1 | 7.3 and 7.3 ± 0.1 | 7.5 and 7.5 ± 0.2 | 20 | 6.5 and 6.5 ± 0.2 |  | 
5 | CC(C)[C@@H]1NC(=O)[C@H](CC(N)=O)NC(=O)[C@H](Cc2ccccc2)NC(=O)[C@H](Cc2ccccc2)NC(=O)[C@H](CCCNC(=N)N)NC(=O)[C@@H]2CCCN2C(=O)[C@H]2CCCN2C(=O)[C@H](Cc2ccccc2)NC1=O [ZMK 2-82, c[Pro-Arg-Phe-Phe-Asn-Val-Phe-DPro]] (cyclo(PRFFNVF[dP])) | Yes |  |  |  | 2 | 3 | 2 | 3 |  |  | 5.9 and 5.9 ± 0.1 | 7.2 and 7.2 ± 0.1 | 7.7 | 2 | 6.1 and 6.1 ± 0.09 | 16 | 7.8 ± 0.03
